Source: patent publication US7763286B2, “Composition comprising an extract of Tiarella polyphylla and tiarellic acid isolated therefrom having antiinflammatory, antiallergic and antiasthmatic activity” (Korea Research Institute of Bioscience and Biotechnology, priority 2005, dated 2010)
Like-named read-outs stand apart in the source and are kept apart here.

How the values were obtained:
OVA-specific IgE = OVA-specific IgE in plasma of OVA-induced asthmatic mice (ELISA); format: in vivo; details: Mus musculus, 48 hours after last challenge, 30 mg/ml, vs OVA-control
Description: (§1) Groups of mice (n=5-6) were studied; they received the following treatment: (1) sham-sensitization plus challenge with phosphate-buffered saline (PBS; ipNeb); (2) sensitization plus challenge with OVA (ovalbumin: Sigma A5503; Sigma, St. Louis, Mo.) (ipNeb); (3) sensitization with OVA (ip) plus challenge with OVA (Neb) and samples (tiarellic acid or zileuton, po). Briefly, mice were sensitized with intraperitoneal injection of 20 μg OVA, which was emulsified with 2 mg of aluminum hydroxide in 100 μl of PBS buffer (pH 7.4) on days 0 and 11. The mice were challenged through the airways with OVA (1% in PBS) for 20 min using an ultrasonic nubuilizer (NE-U12; Omron Corp., Tokyo, Japan) on days 19, 20, 21 and 25 after the initial sensitization. […]
48 hours after the last challenge, the mice were sacrificed with an overdose of pentobarbital (Sigma P3761), and a tracheotomy was performed. […] The amount of IL-4, IL-5 and IL-13 in BALF was measured by a specific mouse ELISA kit (R&D Systems; Minneapolis, Minn.) according to the manufacturer's instructions. […]
Plasma was obtained by cardiac puncture after the tracheotomy. […] IgE levels in each sample were measured the optical density readings at 450 nm, and OVA-specific IgE concentrations were calculated from a standard curve, which was generated in case recombinant IgE (5-2,000 ng/ml) was used.

[1] = tested on: OVA-induced asthmatic mice; assay: Airway hyperresponsiveness (AHR), whole-body plethysmography, OVA-induced asthmatic mice; format: in vivo; details: for Penh value: tiarellic acid and zileuton 30 mg/ml, po; for Penh value / AHR compared with OVA-treated group: OVA-challenged mice, in words
Description: Groups of mice (n=5-6) were studied; they received the following treatment: (1) sham-sensitization plus challenge with phosphate-buffered saline (PBS; ipNeb); (2) sensitization plus challenge with OVA (ovalbumin: Sigma A5503; Sigma, St. Louis, Mo.) (ipNeb); (3) sensitization with OVA (ip) plus challenge with OVA (Neb) and samples ([…] or zileuton, po). Briefly, mice were sensitized with intraperitoneal injection of 20 μg OVA, which was emulsified with 2 mg of aluminum hydroxide in 100 μl of PBS buffer (pH 7.4) on days 0 and 11. The mice were challenged through the airways with OVA (1% in PBS) for 20 min using an ultrasonic nubuilizer (NE-U12; Omron Corp., Tokyo, Japan) on days 19, 20, 21 and 25 after the initial sensitization. The mice were sacrificed 48 hours after the last challenge (day 27) to determine the suppressive effect of extract of T. polyphylla and […] on the airways of allergic asthma. 24 hours after the final aerosol challenge AHR was measured by using a whole-body plethysmography (OCP3000; Allmedicus, Korea)(Hamelmann E et al., Am J Respir Crit. Care Med., 156, pp 766-775, 1997). […] Bronchoconstriction was recorded for additional 5 mins at each concentration. The highest Penh value of each sample was obtained during each methacholine challenge, and expressed as a percentage of a basal Penh value in response to control (PBS) challenge.

IL-13 = IL-13 level in BALF of OVA-induced asthmatic mice (ELISA); format: in vivo; details: 30 mg/ml; for IL-13: 48 hours after last challenge; for inhibition at 30000 µg/mL: Mus musculus, vs OVA-control
Description: (§2) Groups of mice (n=5-6) were studied; they received the following treatment: (1) sham-sensitization plus challenge with phosphate-buffered saline (PBS; ipNeb); (2) sensitization plus challenge with OVA (ovalbumin: Sigma A5503; Sigma, St. Louis, Mo.) (ipNeb); (3) sensitization with OVA (ip) plus challenge with OVA (Neb) and samples (tiarellic acid or zileuton, po). Briefly, mice were sensitized with intraperitoneal injection of 20 μg OVA, which was emulsified with 2 mg of aluminum hydroxide in 100 μl of PBS buffer (pH 7.4) on days 0 and 11. The mice were challenged through the airways with OVA (1% in PBS) for 20 min using an ultrasonic nubuilizer (NE-U12; Omron Corp., Tokyo, Japan) on days 19, 20, 21 and 25 after the initial sensitization. The mice were sacrificed 48 hours after the last challenge (day 27) to determine the suppressive effect of extract of T. polyphylla and tiarellic acid on the airways of allergic asthma.
(§3) 48 hours after the last challenge, the mice were sacrificed with an overdose of pentobarbital (Sigma P3761), and a tracheotomy was performed. After ice-cold PBS (0.5 ml) was instilled into the lungs, bronchoalveolar lavage fluid (BALF) was obtained by aspiration three times (total 1.5 ml) via tracheal cannulation. BALF was centrifuged and supernatants were collected and stored at −70° C. before use. The amount of IL-4, IL-5 and IL-13 in BALF was measured by a specific mouse ELISA kit (R&D Systems; Minneapolis, Minn.) according to the manufacturer's instructions. The detection limit of the assays was 250 pg/ml.
(§4) To determine the effect of extract of T. polyphylla and tiarellic acid on the cytokine release in the OVA-induced asthmatic mice, 48 hours after the last challenge, the levels of cytokines (IL-4, IL-5 and IL-13) in BALF were measured by using ELISA method.

IL-4 = IL-4 level in BALF of OVA-induced asthmatic mice (ELISA); format: in vivo; details: 30 mg/ml; for IL-4: 48 hours after last challenge; for inhibition at 30000 µg/mL: Mus musculus, vs OVA-control
Description: as §2, §3, §4

LTC4 release = LTC4 release from SCF-stimulated bone marrow-derived mast cells (BMMC), enzyme immunoassay; format: cell-based, Balb/c mice; details: Mus musculus, SCF 100 ng/ml stimulation, read-out: LTC4 release inhibition (IC50)
Description: BMMC were obtained from male Balb/c mice and cultured for up to 4 weeks in 50% enriched medium (RPMI containing 2 mM L-glutamine, 25 mM HEPES buffer, 2 mg/ml sodium bicarbonate, 100 units/ml penicillin G, 100 μg/ml streptomycin sulfate, 0.25 μg/ml amphotericin B) supplemented with 10% fetal bovine serum with IL-3 (Sigma I4144, 2 ng/ml) (Murakami M et al., J. Bio. Chem., 39, pp 22653-22656, 1995). 3 weeks after the culture, more than 98% of BMMC was found in the cells as assessed by staining method with toluidine blue.
BMMC were suspended in the enriched medium at the cell density of 1×10^6 cells/ml, and were then incubated in a humidified 5% CO2 incubator with or without sample in DMSO (final DMSO concentration was less than 0.5%) for 30 min at 37° C. After the stimulation with stem cell factor (SCF, Sigma S9915, 100 ng/ml) for 20 min, the LTC4 release in supernatants was measured by an enzyme immunoassay kit (Cayman Chemical, Ann Arbor, Mich., U.S.A.) according to the manufacturer's instructions. All the experiments were carried out in triplicate and the inhibition of LTC4 release was determined by calculating % reduction of LTC4 release from the control (Lee S H et al., Biol. Pharm. Bull., 27, pp 786-788, 2004). […]

IL-5 = IL-5 level in BALF of OVA-induced asthmatic mice (ELISA); format: in vivo; details: 30 mg/ml; for IL-5: 48 hours after last challenge; for inhibition at 30000 µg/mL: Mus musculus, vs OVA-control
Description: as §2, §3, §4

OVA-induced mice = assay: OVA-induced inflammation in lung tissue (H&E histology, inflammation score); format: in vivo
Description: as §1, with “11.” for “11. The mice were challenged through the airways with OVA (1% in PBS) for 20 min using an ultrasonic nubuilizer (NE-U12; Omron Corp., Tokyo, Japan) on days 19, 20, 21 and 25 after the initial sensitization.”
The lung tissue was fixed for 24 hours on 10% neutral-buffered formalin. […] The degree of cell infiltration in the airway was scored in a double-blind test performed by two independent investigators (Myou S et al., J. Exp. Med., 198, pp 1573-1582, 2003). The peri-bronchiole and peri-vascular inflammation was evaluated by specific standard, i.e., scoring of 0-3, 0, no cells; 1, a few cells; 2, a ring of cells 1 to 5 cell-layer deep; 3, a thick ring of cells more than 5 cell-layer deep. To evaluate the suppressive effect of T. polyphylla extract and tiarellic acid on the leukocyte infiltration, the degree of inflammation was scored by quantitative analysis in lung tissues 48 hours after the last challenge (See FIG. 2).

ICR rat = assay: Carageenan-induced rat-paw edema; format: in vivo; details: for The thickness ratio of ankle (%) / inhibition at 50 mg/kg: 50 mg/kg; for inhibition at 50 mg/kg: Rattus norvegicus, paw edema
Description: The inhibiting activity of the extract of T. polyphylla and […] prepared from the above Examples on the edema formation in ICR rat was determined as follows. The mice were divided into three groups consisting of 6 rats for each group, i.e., T1 treated with only solvent as a negative control group, T2 treated with 50 mg/kg of the extract of T. polyphylla, T3 treated with 50 mg/kg of aspirin respectively. 1 hour after the treatment, 1% […] solution was injected into inner rat ankle to induce edema and the thickness of ankle was measured by Vernier's caliper to determine the degree of the edema. The determined thickness was calculated by following Math Fig. 1. The thickness ratio of ankle(%)=[(maximum thickness of rat paw edema)-(the thickness of pre-treated rat paw edema)/(the thickness of pre-treated rat paw edema)]×100 MathFigure 1

HL-60 cells = details: human, 4 h
Description: Promyelotic HL-60 cells (HL-18103, 5×10^5 cells/ml) were seeded on 96-well plates under NGF-free condition. […] 4 hours later, MTT was removed and 100 μl of DMSO was dropped into each well to dissolve crystals. UV absorbance was measured by microplate reader (BIO-RAD, U.S.A.) at 570 nm to calculate the cell viability.

Structure (SMILES)	inhibition at 30000 µg/mL (OVA-specific IgE) [%]	Penh value ([1]; Metacholine 0 mg/ml)	Penh value ([1]; Metacholine 5 mg/ml)	Penh value ([1]; Metacholine 10 mg/ml)	Penh value ([1]; Metacholine 20 mg/ml)	Penh value / AHR compared with OVA-treated group [1]	IL-13 (IL-13) [pg/mL]	inhibition at 30000 µg/mL (IL-13) [%]	IL-4 (IL-4) [pg/mL]	inhibition at 30000 µg/mL (IL-4) [%]	IC50 (LTC4 release) [nM]	IL-5 (IL-5) [pg/mL]	inhibition at 30000 µg/mL (IL-5) [%]	further results
CC(c1cc2ccccc2s1)N(O)C(N)=O (centres unmarked) [zileuton]	45.8	0.55 ± 0.14	1.17 ± 0.59	1.97 ± 0.83	2.49 ± 0.90	showed a decrease of AHR but less than tiarellic acid	130.1 ± 16.8	10.3	289.5 ± 59.0	18.7	110	157.8 ± 41.3	12.5	
C=C(C)[C@@H]1CC[C@]2(C)CC[C@]3(C(=O)O)C(CCC4[C@@]5(C)CC[C@H](O)[C@@](C)(CO)C5CC[C@]43C)C12 (some centres unmarked) [Tiarellic acid, tiarellic acid]	48.8	0.46 ± 0.08	0.96 ± 0.45	1.54 ± 0.74	2.15 ± 0.52	significantly reduced	81.7 ± 40.9	43.7 ± 28.2	33.8 ± 14.3	90.5 ± 4	2490	81.9 ± 41.4	54.6 ± 23	infiltration of eosinophil-rich leukocytes (OVA-induced mice; H&E staining of lung tissues, compared with OVA-treated mice): significantly attenuated; suppressive effect on the inflammation in the lung tissues (OVA-induced mice; OVA-induced mice, 48 hours after last challenge): most potent suppressive effect; inhibition effect on rat paw edema (ICR rat; in words): potent inhibition effect; Cell viability (%) (HL-60 cells; 50 μM): 100%; Cell viability (%) (HL-60 cells; 100 μM): 102%
CC(=O)Oc1ccccc1C(=O)O [aspirin]														The thickness ratio of ankle (%) (ICR rat; 1 hr): 139.3 ± 40.6%; The thickness ratio of ankle (%) (ICR rat; 2 hr): 170.4 ± 34.5%; The thickness ratio of ankle (%) (ICR rat; 3 hr): 180.6 ± 28.6%; The thickness ratio of ankle (%) (ICR rat; 4 hr): 196.9 ± 15.4%; The thickness ratio of ankle (%) (ICR rat; 5 hr): 198.5 ± 12.6%; inhibition at 50 mg/kg (ICR rat; 1 hr): -16.8 ± 34%; inhibition at 50 mg/kg (ICR rat; 2 hr): -7.8 ± 21.8%; inhibition at 50 mg/kg (ICR rat; 3 hr): 7.3 ± 14.7%; inhibition at 50 mg/kg (ICR rat; 4 hr): 4.3 ± 7.5%; inhibition at 50 mg/kg (ICR rat; 5 hr): 1.5 ± 6.3%
